Earlier results, collected in patent publication US20170136076A1, “THERAPEUTIC COMPOSITIONS COMPRISING HERBAL EXTRACTS AND ESSENTIAL OILS FOR SMOKING AND VAPORIZATION” (NISARGA BIOTECH PRIVATE LIMITED, priority 2015, published 2017).

How the values were obtained:
[1] = pure THC in the vaporizer
[2] = after 90 minutes; condenses on the surface of the vaporizer or the balloon

SMILES: CCCCCc1cc(O)c2c(c1)OC(C)(C)[C@@H]1CCC(C)=C[C@@H]21 [THC, tetrahydrocannabinol]
- degradation products (delta-8-THC, cannabinol, unknown compounds) detected by HPLC [1]: no degradation products
- loss of THC from stored vapor [2]: exceed 50%
